Test results from patent publication US20020037516A1, “Assay for identification of a test compound” (priority 2000, published 2002).

Assays:
[1] = target: tsr methyltransferase (thiostrepton resistance methyltransferase); assay: Inhibition of tsr methyltransferase methylation of mGAR (GTPase activating region of 23S rRNA): [3H]SAM incorporation, mGAR titration, 96-well (FIG. 7); assay type: biochemical, Streptomyces azureus; settings: compounds at 50 μM, 25° C., 30 min, increasing mGAR, Ki=[I]/((Km(I)/Km)−1), tsr gene cloned, overexpressed in E. coli, read-out: TSR methyltransferase (GAR RNA methylation) Ki
Experimental: The Km for each titration is determined by fitting the data to the equation
Bmax: incorporation at RNA substrate saturation in cpm.
[RNA]: concentration of target RNA.
The Ki value for a compound is determined by relating the Km in the presence and the Km in the absence of compound using the equation:
[I]: concentration of the inhibitory compound
Km(I): Michaelis constant in the presence of inhibitor
Km: Michaelis constant in the absence of inhibitor
In an preferred format, enzyme binding and activity is measured by measuring the Michealis constant (Km) of the enzymatic reaction in the absence and presence of a constant concentration of the test compound. Increasing amounts of target RNA are incubated with the modifying enzyme and the yield of modified RNA product is measured for each point. Data from this substrate titration are fitted to a saturation curve by non-linear regression. The Michaelis constant Km is determined from the curve-fitting by routine methods. […]
RNA (0-2 μM) was incubated in 25 mM HEPES-KOH, pH 7.5, 25 mM NH4Cl, 5 mM MgCl2, 5 mM DTT with test compounds. […] 50 μl scintillation cocktail (Wallac Optiszint) was added to each well of the dried filter plate and incorporated [^3H]-radioactivity was determined in a Wallac Trilux scintillation counter. […]

rRNA = rRNA methylation by Erm E in the presence of erythromycin; assay type: biochemical; settings: erythromycin 200 μM
Experimental: Erm E is inhibited by erythromycin (FIG. 21). Erythromycin inhibits enzyme activity most noticably when the RNA is folded in the presence of erythromycin (FIG. 21). One embodiment of the invention may therefore involve folding of the RNA in the presence of compound before measuring the activity of the methyltransferase on the RNA.
The reaction was performed in 50 μl 50 mM Tris/Cl, pH 7.5, 4 mM MgCl2, 40 mM KCl, 10 mM DTT, for 120 min at 37° C. with 0.04 μM rRNA and 6 μCi [3H]SAM. The erythromycin concentration was 200 μM.

mGAR = assay: Inhibition of tsr methylation activity by test compounds in 96 well plate, mGAR titration; assay type: biochemical; settings: compound at 50 μM, 25° C., 30 minutes, increasing amounts of mGAR; FIG. 7
Experimental: The Ki value for a compound is determined by relating the Km in the presence and the Km in the absence of compound using the equation: […]
In an preferred format, enzyme binding and activity is measured by measuring the Michealis constant (Km) of the enzymatic reaction in the absence and presence of a constant concentration of the test compound. Increasing amounts of target RNA are incubated with the modifying enzyme and the yield of modified RNA product is measured for each point. Data from this substrate titration are fitted to a saturation curve by non-linear regression. The Michaelis constant Km is determined from the curve-fitting by routine methods.
Test compounds were assayed in a 96 well plate for inhibition of tsr methylation activity at 50 μM. Compounds were incubated at 25° C. for 30 minutes in the presence of [^3H]SAM and enzyme, and increasing amounts of mGAR were added. RNA was precipitated with 2% TFA, filtered, and scintillation counted in a Wallac Trilux instrument.

E. coli GAR = assay: TSR methyltransferase methylation of GAR RNA with [3H]SAM, titration of inhibitor; assay type: biochemical; settings: 23S (or GAR), competition with methyltransferase at A-1067; FIG. 6; read-out: affinity (binding measured by following inhibition of methylation)
Experimental: RNA (0-2 μM) was incubated in 25 mM HEPES-KOH, pH 7.5, 25 mM NH4Cl, 5 mM MgCl2, 5 mM DTT with test compounds. The methylation reaction was started by adding 8 pmol TSR methyltransferase and 1 μCi [^3H]SAM (Amersham-Pharmacia). The final assay volume was 100 μl. The reaction was incubated 15 min at 25° C. and stopped by adding 1 vol. 2% TFA. The TFA precipitate was filtered through a 96-well glassfiber filterplate (Millipore Multiscreen FB 1.0 μM Glass Fiber Type B Filter). The filters were washed with 2 vol. of 2% TFA. 50 μl scintillation cocktail (Wallac Optiszint) was added to each well of the dried filter plate and incorporated [^3H]-radioactivity was determined in a Wallac Trilux scintillation counter.
The L11 ribosomal protein is an integral part of the GAR, and its presence inhibits methyltransferase activity [Bechthold & Floss, 1994]. Various concentrations of L11 were incubated with E. coli GAR and [^3H]SAM as described above. As expected, methylation was inhibited as L11 concentration increased.
Methyltransferase and thiostrepton thus compete for binding at A-1067, and binding of thiostiepton to 23S (or GAR) can be measured by following inhibition of methylation.

## NC[C@@H]1O[C@H](O[C@H]2[C@@H](O)[C@H](O[C@@H]3[C@@H](O)[C@H](N)C[C@H](N)[C@H]3O[C@H]3O[C@H](CN)[C@@H](O)[C@H](O)[C@H]3N)O[C@@H]2CO)[C@H](N)[C@@H](O)[C@@H]1O [Neomycin, neomycin]
[1]
  Ki: 9 µM

## CC[C@H]1OC(=O)[C@H](C)[C@@H](O[C@H]2C[C@@](C)(OC)[C@@H](O)[C@H](C)O2)[C@H](C)[C@@H](O[C@@H]2O[C@H](C)C[C@H](N(C)C)[C@H]2O)[C@](C)(O)C[C@@H](C)C(=O)[C@H](C)[C@@H](O)[C@]1(C)O [erythromycin]
rRNA; refolded rRNA 0.04 μM, 120 min at 37° C., FIG. 21
  refolded rRNA methylation by Erm E: decrease
rRNA; unfolded rRNA
  effect on rRNA methylation by Erm E: no effect

## NC[C@@H]1O[C@H](O[C@H]2[C@@H](O)[C@H](O[C@@H]3[C@@H](O)[C@H](N)C[C@H](N)[C@H]3O[C@H]3O[C@H](CN)[C@@H](O)[C@H](O)[C@H]3N)O[C@@H]2CO)[C@H](N)[C@@H](O)[C@@H]1O [neomycin]
mGAR
  inhibition of methyltransferase (methylation): significant inhibition

## C=C(NC(=O)C(=C)NC(=O)c1csc(C2=N[C@@H]3c4csc(n4)[C@H]4NC(=O)c5csc(n5)[C@H]([C@](C)(O)[C@@H](C)O)NC(=O)[C@H]5CSC(=N5)/C(=C/C)NC(=O)[C@H]([C@@H](C)O)NC(=O)c5csc(n5)[C@]3(CC2)NC(=O)[C@H](C)NC(=O)C(=C)NC(=O)[C@H](C)NC(=O)[C@H]([C@@H](C)CC)N[C@@H]2C=Cc3c([C@H](C)O)cc(nc3[C@H]2O)C(=O)O[C@@H]4C)n1)C(N)=O [thiostrepton]
E. coli GAR
  Kd: 1100 nM
